Experimental data reported in patent US20110107445A1, “Efficient Insertion of DNA Into Embryonic Stem Cells” (ITI Scotland Limited, priority 2008, published 2011).

Experiments:
CYP3A4 [1] = assay: In vitro DBF oxidation by mouse liver and intestinal microsomes; format: in vitro ADME
Description: The total reaction volume was 1 mL. Fluorescein fluorescence was recorded using an F-4500 fluorescence spectrophotometer (Hitachi), excitation 485 nm and emission 538 nm. Fluorescein standard (10 μL, 25 μM) was injected into the reaction cuvette approximately 150 sec after the addition of NADPH. Slopes of the time course of the product accumulation were calculated using FL-Solution 2.0 (Hitachi).

[2] = Body and liver weights of PCN treated mice; format: in vivo, mouse; details: for Liver per body weight, percentage of C57BL/6J from the same treatment group / Liver per body weight, percentage of control group of the same strain / Body weight / Liver per body weight / Liver weight: PCN 100 mg/kg daily for 2 days IP; for Body weight / Liver per body weight / Liver weight: mean ± SD
Description: (§1) The mice received either corn oil (vehicle) or PCN 100 mg/kg, daily, for 2 days by intraperitoneal (IP) injection according to the experimental design described in Table 3. Dosing solutions were prepared at CXR Biosciences on the day of dosing by adding the vehicle (corn oil) to the requisite quantity of the PCN. The concentration of PCN was the concentration of supplied chemical, without any correction for purity. Excess dosing solution was stored at approximately 2-8° C. for possible future analysis. The volume of dosing solution was 10 mL/kg bodyweight. Approximately 24 h after the second dose, the mice were euthanized using a rising concentration of CO2. Blood was collected at termination by cardiac puncture into lithium/heparin coacted tubes for plasma preparation.
The body weight of each mouse was recorded at the start of the study and immediately prior to termination. Bodyweights were recorded electronically or manually and records of these weights were stored in the study file.
In order to weigh the liver, the gall bladder was removed, and then the liver was removed and weighed. Two samples of liver (approximately 5 mm^3) were immediately flash frozen in a cryovial in liquid nitrogen then stored at approximately −70° C. for RNA analysis. The remaining liver was weighed and immediately used for subcellular fractionation to homogenates and microsomes.

CYP3A4 [3] = assay: Western blot of liver and intestinal microsomes for CYP3A4 protein; format: in vivo, mouse
Description: as §1
The duodenum (first 10 cm from the base of the stomach) was removed and flushed with ice cold PBS containing a protease inhibitor cocktail (Roche). The first 2 cm was but and placed into a 2 ml cryvial containing 1 ml of TRIZOL (Sigma), flash frozen immediately, and then stored at approximately −70° C. for Taqman® analysis. The remainder of the duodenum was placed in a 1 ml cryovial and flash frozen immediately, and then stored at approximately −70°.
Liver microsomes were produced by preparing subcellular fractions from fresh livers. The livers were processed as described above to homogenates and microsomes. Aliquots from liver samples were stored at approximately −70° prior to analysis.
Frozen small intestines were homogenised in SET with protease cocktail inhibitor (Roche) and PMSF (mM) using a Polytron homogeniser. The homogenates were subjected to subcellular fractionation as described above. The microsomal fractions were stored at approximately −70° prior to analysis.
Liver microsomes from C57BL/6J, hCYP3A4/3A7_Cyp3a KO, hCYP3A4_Cyp3a KO and Cyp3a KO mice were analysed by Western blotting using an antibody specific to CYP3A4 and the results are shown in FIG. 22. There was a clear protein band for CYP3A4 on the Western blot of liver and intestinal microsomes from vehicle treated hCYP3A4/3A7_Cyp3a KO mice. […]

CYP3A7 mRNA = details: mouse, in vivo
Description: 3 homozygous male mice per strain were used throughout. Two mice were administered with 5-Pregnen-3β-ol-20-one-16α-carbonitrile (PCN) (100 mg/kg/2 daily doses/IP) and one mouse was given the vehicle (corn oil). […] Wild type (WT) and Cyp3a KO animals were included as controls (n=3 for WT, pooled; n=1-2 for Cyp3a KO). Animals were sacrificed 24 hrs post final dose. Liver and duodenal microsomes were analysed for CYP3A4 expression and catalytic activity.
as §1, with “Approximately 24 h after the second dose, the mice were euthanized using a rising concentration of CO2. Blood was collected at termination by cardiac puncture into lithium/heparin coacted tubes for plasma preparation.” left out
For each target gene a reaction with the lowest dCt value was identified and that dCt value was subtracted from all other dCt, giving so-called ddCt (ddCt of the sample with the lowest dCt (endogenous reference) equals 0). Finally, the normalised relative amount of target gene (RQ) was calculated using the following formula: RQ=(2̂(−ddCt))*100 as shown in Table 9.

CYP3A4 [4] = format: in vitro ADME, mouse
Excerpt: FIG. 24. 7-BQ oxidation by liver (A) and intestinal (B) microsomes from C57BL/6J, hCYP3A4/3A7_Cyp3a KO, hCYP3A4_Cyp3a KO and Cyp3a KO mice Data generated according to CXR approved Laboratory Method Sheet Fluor-0005. Apart from bars for untreated transgenic/knock-out mice, which represent a single measurement, data are mean±SD (n=3 for C57BL/6J microsomes; n=2 for microsomes from PCN treated transgenic strains and human liver microsomes (HLM)). Activities of samples from treated hCYP3A4/3A7_Cyp3a KO and hCYP3A4_Cyp3a KO mice were compared to that from Cyp3a KO line with an unpaired t test (two tailed P values). 3 homozygous male mice per strain were used throughout. Two mice were administered with 5-Pregnen-3β-ol-20-one-16α-carbonitrile (PCN) (100 mg/kg/2 daily doses/IP) and one mouse was given the vehicle (corn oil). […] Wild type (WT) and Cyp3a KO animals were included as controls (n=3 for WT, pooled; n=1-2 for Cyp3a KO). Animals were sacrificed 24 hrs post final dose. Liver and duodenal microsomes were analysed for CYP3A4 expression and catalytic activity.

[5] = Plasma clinical chemistry of PCN treated mice; format: in vivo, mouse; details: PCN treated hCYP3A4_Cyp3a KO mice compared to treated C57BL/6J mice
Description: as §1
Plasma samples were produced by removing red blood cells by centrifugation (2,000-3,000 rpm for 10 min at 8-10° C.). The supernatant (plasma) was stored on ice prior to clinical chemistry analysis. The pellet was discarded. Plasma samples from all animals were analysed for triglycerides, alanine aminotransferase, alkaline phosphatase, aspartate aminotransferase, albumin, cholesterol, bilirubin (total and direct), high and low density lipoproteins using the COBAS Integra 400+ (Roche), and the results are shown in FIGS. 19-21. […]

CYP3A4 [6] = molecular target: T1, CYP3A4 (Homo sapiens, UniProt P08684); assay: In vitro oxidation of 7-BQ by pooled human liver microsomes; format: in vitro ADME
T1 construct: tissue Gentest 452172; host or cells: pooled (male) human liver microsomes
Excerpt: FIG. 24. 7-BQ oxidation by liver (A) and intestinal (B) microsomes from C57BL/6J, hCYP3A4/3A7_Cyp3a KO, hCYP3A4_Cyp3a KO and Cyp3a KO mice Data generated according to CXR approved Laboratory Method Sheet Fluor-0005. Apart from bars for untreated transgenic/knock-out mice, which represent a single measurement, data are mean±SD (n=3 for C57BL/6J microsomes; n=2 for microsomes from PCN treated transgenic strains and human liver microsomes (HLM)). Activities of samples from treated hCYP3A4/3A7_Cyp3a KO and hCYP3A4_Cyp3a KO mice were compared to that from Cyp3a KO line with an unpaired t test (two tailed P values).

T1 sequence (P08684 whole entry): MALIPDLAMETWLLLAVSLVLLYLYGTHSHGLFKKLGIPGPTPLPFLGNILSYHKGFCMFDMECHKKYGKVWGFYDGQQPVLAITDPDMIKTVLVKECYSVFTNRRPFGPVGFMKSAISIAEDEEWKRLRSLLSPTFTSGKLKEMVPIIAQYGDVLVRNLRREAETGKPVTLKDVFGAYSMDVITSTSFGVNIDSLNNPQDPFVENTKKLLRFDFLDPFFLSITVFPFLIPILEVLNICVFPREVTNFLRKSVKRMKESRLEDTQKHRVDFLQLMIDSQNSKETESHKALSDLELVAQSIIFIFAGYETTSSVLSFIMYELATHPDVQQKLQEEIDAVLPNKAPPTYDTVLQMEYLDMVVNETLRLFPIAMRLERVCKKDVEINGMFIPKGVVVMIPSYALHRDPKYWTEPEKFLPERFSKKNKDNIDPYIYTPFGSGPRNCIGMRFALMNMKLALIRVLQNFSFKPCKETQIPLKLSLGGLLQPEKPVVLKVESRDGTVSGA

O=C(OCc1ccccc1)c1ccccc1-c1c2ccc(=O)cc-2oc2cc(OCc3ccccc3)ccc12 [DBF]
DBF oxidation reaction rate (CYP3A4 [1]; hCYP3A4/3A7_Cyp3a KO microsomes compared to hCYP3A4_Cyp3a KO): higher | DBF oxidation activity (CYP3A4 [1]; liver and intestinal samples from untreated humanised mice compared to Cyp3a KO): little increase | DBF oxidation activity, difference humanised vs Cyp3a KO (CYP3A4 [1]; samples from the PCN treated groups): significantly more pronounced

CC(=O)[C@H]1[C@H](C#N)C[C@H]2[C@@H]3CC=C4C[C@@H](O)CC[C@]4(C)[C@H]3CC[C@@]21C [PCN, 5-Pregnen-3β-ol-20-one-16α-carbonitrile]
Liver per body weight, percentage of C57BL/6J from the same treatment group ([2]; C57BL/6J mice): 100 ± 2.1 % | Liver per body weight, percentage of control group of the same strain ([2]; C57BL/6J mice): 131 ± 2.7 % | Body weight ([2]; C57BL/6J mice, n=3): 19.30 ± 0.82 g | Liver per body weight ([2]; C57BL/6J mice, n=3): 5.70 ± 0.12 % | Liver weight ([2]; C57BL/6J mice, n=3): 1.10 ± 0.06 g | liver/body weight ratio ([2]; C57BL/6J mice, PCN administration vs control): significantly (P<0.001) increased | Liver per body weight, percentage of C57BL/6J from the same treatment group ([2]; Cyp3a KO mice): 89 ± 4.4 % | Liver per body weight, percentage of control group of the same strain ([2]; Cyp3a KO mice): 121 ± 6.0 % | Body weight ([2]; Cyp3a KO mice, n=2): 24.05 ± 1.77 g | Liver per body weight ([2]; Cyp3a KO mice, n=2): 5.06 ± 0.25 % | Liver weight ([2]; Cyp3a KO mice, n=2): 1.22 ± 0.15 g | liver/body weight ratio ([2]; all treated transgenic mice vs treated wild type, significant (P<0.05) only in Cyp3a KO group): decreased liver/body weight ratio compared to the treated wild type | Liver per body weight, percentage of C57BL/6J from the same treatment group ([2]; hCYP3A4/3A7_Cyp3a KO mice): 97 ± 21.1 % | Liver per body weight, percentage of control group of the same strain ([2]; hCYP3A4/3A7_Cyp3a KO mice): 120 ± 26.1 % | Body weight ([2]; hCYP3A4/3A7_Cyp3a KO mice, n=2): 19.15 ± 0.64 g | Liver per body weight ([2]; hCYP3A4/3A7_Cyp3a KO mice, n=2): 5.53 ± 1.20% | Liver weight ([2]; hCYP3A4/3A7_Cyp3a KO mice, n=2): 1.06 ± 0.27 g | Liver per body weight, percentage of C57BL/6J from the same treatment group ([2]; hCYP3A4_Cyp3a KO mice): 93 ± 4.6 % | Liver per body weight, percentage of control group of the same strain ([2]; hCYP3A4_Cyp3a KO mice): 113 ± 5.6 % | Body weight ([2]; hCYP3A4_Cyp3a KO mice, n=2): 19.00 ± 0.71 g | Liver per body weight ([2]; hCYP3A4_Cyp3a KO mice, n=2): 5.27 ± 0.26% | Liver weight ([2]; hCYP3A4_Cyp3a KO mice, n=2): 1.00 ± 0.09 g | hepatic and intestinal CYP3A4 expression (CYP3A4 [3]; both humanised lines, treatment with PCN): strong induction | intestinal CYP3A4 protein upregulation (Western blot) (CYP3A4 [3]; intestinal microsomes, humanised mice, compared with liver upregulation): less pronounced | liver CYP3A4 protein (Western blot) (CYP3A4 [3]; liver microsomes, humanised mice, PCN 100 mg/kg/2 days/IP): strong upregulation | CYP3A7 mRNA (Q-PCR) (CYP3A7 mRNA): possible induction of CYP3A7 | 7-BQ oxidation activity in response to PCN (CYP3A4 [4]): no increase in activity | plasma level of cholesterol, low and high density lipoproteins, alanine transferase and alkaline phosphatase [5]: statistically significant increases

c1ccc(COc2ccc3cccnc3c2)cc1 [7-BQ, 7-benzyloxyquinoline]
7-BQ oxidation reaction rate (CYP3A4 [6]): low reaction rate | 7-BQ oxidation (CYP3A4 [4]): marked decrease | 7-BQ oxidation, recovery of activity (CYP3A4 [4]): small and not statistically significant
